Counter-ions that a name gives are not always drawn. Like-named read-outs stand apart in the source and are kept apart here.
Columns and labels:
[1] = system: SUDHL10; assay: Induction of caspase-3/7 activity in SUDHL10 cells (Assay 4); format: cell-based
Procedure, shortened: (§1)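 DLBCL lines SUDHL5 and SUDHL10 were treated with compound for 3 h at 37 °C. Caspase-3/7 activity was then read by Caspase-Glo 3/7 luminescence after 1 h at 37 °C. Medium-only background was subtracted and values were normalized to the mean of DMSO-treated cells.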

[2] = system: SUDHL10; assay: Induction of cytotoxicity in SUDHL10 cells, CellTiter-Glo (Assay 6); format: cell-based; settings: SUDHL10, 5 hours incubation, median, read-out: Cytotox SUDHL10 [M] (median)
Procedure, shortened: (§2)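 Overnight seeding at 37 °C, 5 h treatment, CellTiter-Glo added, 15 min shake at RT, luminescence read. Medium without cells as control.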

[3] = system: SUDHL5; assay: Anti-proliferative effect in SUDHL5 cells, CellTiter-Glo (Assay 7); format: cell-based
Procedure, shortened: (§3)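 Proliferation is measured as luminescence from CellTiter-Glo after cells grow with compound for 72 h in a humidified 37 °C incubator. A reference plate read at time zero supplies the day 0 baseline, and DMSO wells serve as control for IC50 calculation.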

[4] = system: SUDHL5; assay: Induction of cytotoxicity in SUDHL5 cells, CellTiter-Glo (Assay 6); format: cell-based; settings: SUDHL5, 5 hours incubation, median, read-out: Cytotox SUDHL5 [M] (median)
Procedure, shortened: as §2

[5] = target: MCL-1 (Homo sapiens, UniProt Q07820, K194A/K197A/R201A); assay: Protein-protein interaction assay MCL-1/Noxa BH3 peptide, TR-FRET (MCL-1 assay, Assay 1); format: binding; settings: MCL-1 Assay [M] (median), MBP-MCL-1 / Noxa BH3 peptide
Procedure, shortened: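 Human MBP-fused MCL-1 (aa 173-321; 1 nM final) was pre-incubated 10 min at 22 °C with compound in pH 7 Tris buffer containing NaCl, KF, Tween-20, DTT and BGG. Displacement of biotinylated Noxa BH3 peptide was read by TR-FRET (anti-MBP-Eu cryptate/streptavidin-XL665) after 1 h at 22 °C plus overnight at 4 °C. IC50 came from four-parameter fits against DMSO controls.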

[6] = system: AMO-1; assay: Anti-proliferative effect in AMO-1 cells, CellTiter-Glo (Assay 7); format: cell-based; settings: several values per example
Description: (§4) Assessment of the Anti-Proliferative Effect of Compounds in Different Cell Lines
(§5) The impact of compounds on the proliferation of different cell lines was assessed using the CellTiter-Glo® Luminescent Cell Viability reagent from Promega (G7573).
(§6) In parallel, cells were plated in a reference (day 0) plate for time zero determination. Cells were incubated in a humidified incubator at 37° C. overnight.
(§7) Rim wells were excluded. The cells were incubated for 72 hours in a humidified incubator at 37° C. The day 0 plate was measured by adding 30 μL/well of CTG solution (CellTiter-Glo® Luminescent Cell Viability reagent, Promega G7573) to time zero wells in the reference plate followed by a 10 minutes incubation and luminescence reading at 0.1 ms. using the PHERAstar FS microplate reader (BMG Labtech).
(§8) After 72 hours incubation, the treated plates were measured in the same way as the day 0 plate mentioned above. The Bella DRC Master Sheet was used to calculate IC50s, with CI=day 0 values and C0=DMSO control values.

[7] = system: MV-4-11; assay: Anti-proliferative effect in MV-4-11 cells, CellTiter-Glo (Assay 7); format: cell-based; settings: several values per example
Description: as §4, §5, §6, §7, §8

[8] = system: SUDHL5; assay: Induction of caspase-3/7 activity in SUDHL5 cells (Assay 4); format: cell-based
Procedure, shortened: as §1

[9] = system: A2780; assay: Anti-proliferative effect in A2780 cells, CellTiter-Glo (Assay 7); format: cell-based; settings: Homo sapiens, A2780, 72 h, A2780, 72 hours incubation, CellTiter-Glo; several values per example; read-out: Antiproli A2780
Procedure, shortened: as §3

[10] = Homo sapiens, SU-DHL10, 3 h, SUDHL10, 3 hours treatment, Caspase-Glo 3/7, median, read-out: Caspase SUDHL10 [M] (median)
[11] = Homo sapiens, SU-DHL-5, 72 h, SUDHL5, 72 hours incubation, CellTiter-Glo, median, read-out: Antiproli SUDHL5 [M] (median)
[12] = Homo sapiens, AMO1, 72 h, AMO-1, 72 hours incubation, CellTiter-Glo, read-out: Antiproli AMO-1
[13] = Homo sapiens, MV4-11, 72 h, MV-4-11, 72 hours incubation, CellTiter-Glo, read-out: Antiproli MV-4-11
[14] = Homo sapiens, SU-DHL-5, 3 h, SUDHL5, 3 hours treatment, Caspase-Glo 3/7, median, read-out: Caspase SUDHL5 [M] (median)
[15] = read-out: Caspase SUDHL10 [M] (median), SUDHL10, 3 hours treatment, Caspase-Glo 3/7
[16] = read-out: Antiproli SUDHL5 [M] (median), SUDHL5, 72 hours incubation, CellTiter-Glo
[17] = read-out: Antiproli AMO-1, AMO-1, 72 hours incubation, CellTiter-Glo
[18] = read-out: Antiproli MV-4-11, MV-4-11, 72 hours incubation, CellTiter-Glo
[19] = read-out: Caspase SUDHL5 [M] (median), SUDHL5, 3 hours treatment, Caspase-Glo 3/7

MCL-1, sequence (Q07820 173-321 K194A/K197A/R201A, looked up): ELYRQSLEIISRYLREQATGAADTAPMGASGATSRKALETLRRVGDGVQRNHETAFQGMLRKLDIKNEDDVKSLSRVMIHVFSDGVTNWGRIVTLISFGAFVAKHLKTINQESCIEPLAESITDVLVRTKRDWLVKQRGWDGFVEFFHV

SMILES	EC50 [1, 10]	IC50 ([2]; Homo sapiens, SU-DHL10, 5 h)	IC50 [3, 11]	IC50 ([4]; Homo sapiens, SU-DHL-5, 5 h)	IC50 [5]	IC50 [6, 12]	IC50 [7, 13]	EC50 [8, 14]	other results
CCc1nn(CCN2CCOCC2)c2c1-c1c(Cl)ccc3c(CCCOc4cccc5cc(F)ccc45)c(C(=O)O)n(c13)Cc1ccccc1COC2 (racemic) [Example 51, (rac)-3-Chloro-4-ethyl-17-{3-[(6-fluoronaphthalen-1-yl)oxy]propyl}-6-[2-(morpholin-4-yl)ethyl]-6,7,9,14-tetrahydroindolo[7,1-fg]pyrazolo[3,4-d][2,8]benzoxazacycloundecine-16-carboxylic Acid]	1.8e-06 M	1.9e-06 M	7.1e-07 M	1.1e-06 M	1.5e-09 M	4.26e-06 M	1.96e-06 M	8.7e-07 M	IC50 ([6]; AMO-1, 72 hours incubation, CellTiter-Glo, read-out: Antiproli AMO-1): 2.64e-06 M; IC50 ([7]; MV-4-11, 72 hours incubation, CellTiter-Glo, read-out: Antiproli MV-4-11): 2.58e-06 M
Cc1c2c(nn1C)COCc1ccccc1Cn1c(C(=O)O)c(CCCOc3cccc4cc(F)ccc34)c3ccc(F)c-2c31 (racemic) [Example 64, (rac)-15-Fluoro-1-(3-((6-fluoronaphthalen-1-yl)oxy)propyl)-13,14-dimethyl-4,9,11,13-tetrahydrobenzo[3,4]pyrazolo[4′,3′:9,10][1,6]oxaazacycloundecino[8,7,6-hi]indole-2-carboxylic Acid]	6e-06 M	3.2e-06 M	1.5e-06 M	2.2e-06 M	1.5e-09 M	7.46e-06 M		1.7e-06 M	IC50 [9]: 17.1 µM
Cc1nn(C)c2c1-c1c(F)ccc3c(CCCOc4cccc5c4CCCC5)c(C(=O)O)n(c13)Cc1ccccc1COC2 (racemic) [Example 83, (rac)-15-Fluoro-12,14-dimethyl-1-(3-((5,6,7,8-tetrahydronaphthalen-1-yl)oxy)propyl)-4,9,11,12-tetrahydrobenzo[3,4]pyrazolo[4′,3′:9,10][1]oxa[6]azacycloundecino[8,7,6-hi]indole-2-carboxylic Acid]	1.2e-05 M	5.5e-06 M	4.9e-06 M	3.4e-06 M	1e-08 M	1.61e-05 M	1.18e-05 M	4.6e-06 M	
Cc1cc(OCCCc2c(C(=O)O)n3c4c(c(F)ccc24)-c2c(C)nn(C)c2COCc2ccccc2C3)cc(C)c1Cl (racemic) [Example 85, (rac)-1-(3-(4-chloro-3,5-dimethylphenoxy)propyl)-15-fluoro-12,14-dimethyl-4,9,11,12-tetrahydrobenzo[3,4]pyrazolo[4′,3′:9,10][1]oxa[6]azacycloundecino[8,7,6-hi]indole-2-carboxylic Acid]	2e-05 M	6.5e-06 M	6.9e-06 M	3.3e-06 M	1.2e-08 M	2.37e-05 M	1.7e-05 M	3.7e-06 M	
CCc1nn(C)c2c1-c1c(F)ccc3c(CCCOc4cc(C)c(Cl)c(C)c4)c(C(=O)O)n(c13)Cc1ccccc1COC2 (racemic) [Example 86, (rac)-1-(3-(4-Chloro-3,5-dimethylphenoxy)propyl)-14-ethyl-15-fluoro-12-methyl-4,9,11,12-tetrahydrobenzo[3,4]pyrazolo[4′,3′:9,10][1,6]oxaazacycloundecino[8,7,6-hi]indole-2-carboxylic Acid]	6.9e-06 M	5.2e-06 M	4.3e-06 M	2.9e-06 M	1.1e-08 M	1.69e-05 M	1.42e-05 M	2.7e-06 M	
CCc1nn(C)c2c1-c1c(F)ccc3c(CCCOc4ccc(F)c5ccccc45)c(C(=O)O)n(c13)Cc1ccccc1COC2 (racemic) [Example 89, (rac)-14-Ethyl-15-fluoro-1-(3-((4-fluoronaphthalen-1-yl)oxy)propyl)-12-methyl-4,9,11,12-tetrahydrobenzo[3,4]pyrazolo[4′,3′:9,10][1,6]oxaazacycloundecino[8,7,6-hi]indole-2-carboxylic Acid]	8.3e-06 M	7.5e-06 M	4e-06 M	2.6e-06 M	1.2e-08 M	1.28e-05 M	8.44e-06 M	2.9e-06 M	
CCc1nn(C)c2c1-c1c(Cl)ccc3c(CCCOc4cccc5cc(F)ccc45)c(C(=O)O)n(c13)Cc1ccccc1COC2 (single isomer, unassigned; enantiomer 2) [Example 59, (−)-3-Chloro-4-ethyl-17-{3-[(6-fluoronaphthalen-1-yl)oxy]propyl}-6-methyl-6,7,9,14-tetrahydro-indolo[7,1-fg]pyrazolo[3,4-d][2,8]benzoxazacycloundecine-16-carboxylic acid-N-ethylethanamine Salt (Enantiomer 2)]		8.2e-06 M		2.2e-06 M	1e-08 M				EC50 ([1]; Homo sapiens, SU-DHL10, 3 h, read-out: Caspase SUDHL10 [M] (median), SUDHL10, 3 hours treatment, Caspase-Glo 3/7): 7.9e-06 M; IC50 ([3]; Homo sapiens, SU-DHL-5, 72 h, read-out: Antiproli SUDHL5 [M] (median), SUDHL5, 72 hours incubation, CellTiter-Glo): 2.6e-06 M; IC50 ([6]; Homo sapiens, AMO1, 72 h, read-out: Antiproli AMO-1 [M], AMO-1, 72 hours incubation, CellTiter-Glo): 7.14e-06 M; IC50 ([7]; Homo sapiens, MV4-11, 72 h, read-out: Antiproli MV-4-11 [M], MV-4-11, 72 hours incubation, CellTiter-Glo): 4.5e-06 M; EC50 ([8]; Homo sapiens, SU-DHL-5, 3 h, read-out: Caspase SUDHL5 [M] (median), SUDHL5, 3 hours treatment, Caspase-Glo 3/7): 1.9e-06 M
Cc1c2c(nn1C)COCc1ccccc1Cn1c(C(=O)O)c(CCCOc3cccc4ccccc34)c3ccc(F)c-2c31 (single isomer, unassigned; enantiomer 2) [Example 69, (+)-3-Fluoro-4,5-dimethyl-17-{3-[(naphthalen-1-yl)oxy]propyl}-5,7,9,14-tetrahydroindolo[7,1-fg]pyrazolo[3,4-d][2,8]benzoxazacycloundecine-16-carboxylic acid-N-ethylethanamine Salt (Enantiomer 2)]					2.1e-08 M				EC50 [1, 15]: > 3.3e-05 M; IC50 [2]: > 3.3e-05 M; IC50 [3, 16]: 1.2e-05 M; IC50 [4]: 1.4e-05 M; IC50 [6, 17]: 2.6e-05 M; IC50 [7, 18]: 1.51e-05 M; EC50 [8, 19]: 1.3e-05 M
CCc1c2c(nn1C)COCc1ccccc1Cn1c(C(=O)O)c(CCCOc3cccc4cc(F)ccc34)c3ccc(F)c-2c31 (single isomer, unassigned; enantiomer 2) [Example 75, (+)-4-Ethyl-3-fluoro-17-{3-[(6-fluoronaphthalen-1-yl)oxy]propyl}-5-methyl-5,7,9,14-tetrahydro-indolo[7,1-fg]pyrazolo[3,4-d][2,8]benzoxazacycloundecine-16-carboxylic acid-N-ethylethanamine Salt (Enantiomer 2)]					3e-09 M				EC50 [1, 15]: 1.5e-05 M; IC50 [2]: 1e-05 M; IC50 [3, 16]: 5.8e-06 M; IC50 [4]: 5.2e-06 M; IC50 [6, 17]: 1.25e-05 M; IC50 [7, 18]: 1.64e-05 M; EC50 [8, 19]: 4.4e-06 M
